In US12612387B2, “RAS inhibitors and methods of using the same” (Jazz Pharmaceuticals Ireland Limited, priority 2020, dated 2026):

What was measured:
[1] = target: T1, K-RAS G12C (Homo sapiens, UniProt P01116, G12C); assay: Compound depletion assay, K-RAS G12C; assay type: binding; conditions: G12C protein 20 μM, compound 8 μM, 25° C.
T1 construct: His tag; purchased Stratech
Procedure: (§1) Compound Depletion Assay Method
(§2) Lyophilized human K-RAS (12 Cys) protein (His tag) and human K-RAS (12 Asp) protein (His tag) were purchased from Stratech and reconstituted at 30 μM in water. The protein concentration of K-RAS G12C and K-RAS G12D was adjusted to 20 μM in K-RAS Assay Buffer (20 mM HEPES pH 7.5, 150 mM NaCl, 1 mM MgCl2). A 49 μl aliquot of protein solution was transferred to 1.5 ml eppendorfs and incubated at room temperature for 10 minutes. A 1 μl aliquot of compound solution in DMSO was added to the protein solutions in the 1.5 ml eppendorfs to initiate the reaction, with a final assay compound concentration of 8 μM. Reactions were agitated at 25° C., 700 rpm. At each time point (0, 30, 180, 360, 1440 minutes), 10 μl of the reaction mixture was removed, added to 30 μl quench solution (0.3% formic acid, 75 nM propranolol in acetonitrile) to stop the reaction and stored at 4° C. Once all reactions were quenched, the samples were centrifuged at 16000 g for 10 minutes to pellet the protein and salts. A 10 μl aliquot of supernatant containing compound was diluted in 50:50 acetonitrile:H2O in a 96 well plate. The plates were heat sealed and the samples analysed by LC-MS/MS to determine the concentration of compound remaining in the samples. To determine the reaction progress, the compound signal was normalized to the internal standard signal (propranolol). The decrease in free compound concentration is shown as a percentage over time, with the […] at time zero fixed at one hundred percent. Compound is assumed to be completely depleted when no longer detectable with a double blank sample as reference.

[2] = target: T2, K-RAS G12D (Homo sapiens, UniProt P01116, G12D); assay: Compound depletion assay, K-RAS G12D; assay type: binding; conditions: G12D protein 20 μM, compound 8 μM, 25° C.
T2 construct: His tag; purchased Stratech
T2 sequence (P01116 1-188 isoform P01116-2 G12D): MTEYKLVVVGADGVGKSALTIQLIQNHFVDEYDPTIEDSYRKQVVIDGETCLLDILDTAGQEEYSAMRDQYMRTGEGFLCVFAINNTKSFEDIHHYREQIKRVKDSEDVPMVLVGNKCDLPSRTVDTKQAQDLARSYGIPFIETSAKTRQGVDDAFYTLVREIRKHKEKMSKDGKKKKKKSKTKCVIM
Procedure: as §1, §2

T1 sequence (P01116 1-188 isoform P01116-2 G12C): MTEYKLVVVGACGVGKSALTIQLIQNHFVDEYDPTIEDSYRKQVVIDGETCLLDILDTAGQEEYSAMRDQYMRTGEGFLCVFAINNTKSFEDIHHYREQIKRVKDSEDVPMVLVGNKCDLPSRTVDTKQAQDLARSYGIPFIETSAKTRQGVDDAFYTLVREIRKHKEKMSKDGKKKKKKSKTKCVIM

30 min Category (compound remaining at timepoint) [1]	3 hr Category (compound remaining at timepoint) [1]	6 hr Category (compound remaining at timepoint) [1]	30 min Category (compound remaining at timepoint) [2]	3 hr Category (compound remaining at timepoint) [2]	6 hr Category (compound remaining at timepoint) [2]	24 hr Category (compound remaining at timepoint) [1]	24 hr Category (compound remaining at timepoint) [2]	Compound
–	A (≥70% compound remaining at timepoint)	–	–	A (≥70% compound remaining at timepoint)	–	A (≥70% compound remaining at timepoint)	A (≥70% compound remaining at timepoint)	C=CC(=O)N1CCN(c2cc(C(=O)N3CCCc4cccc(C)c43)nc(OC[C@@H]3CCCN3C)n2)CC1 [Example 17, 1-[4-[6-(8-methyl-3,4-dihydro-2H-quinoline-1-carbonyl)-2-[[(2S)-1-methylpyrrolidin-2-yl]methoxy]pyrimidin-4-yl]piperazin-1-yl]prop-2-en-1-one]
–	A (≥70% compound remaining at timepoint)	–	–	A (≥70% compound remaining at timepoint)	–	A (≥70% compound remaining at timepoint)	A (≥70% compound remaining at timepoint)	C=CC(=O)N1CCN(c2cc(C(=O)N3c4ccccc4CCC3C)nc(OC[C@@H]3CCCN3C)n2)CC1 (stereo partly drawn) [Example 15, 1-[4-[6-(2-methyl-3,4-dihydro-2H-quinoline-1-carbonyl)-2-[[(2S)-1-methylpyrrolidin-2-yl]methoxy]pyrimidin-4-yl]piperazin-1-yl]prop-2-en-1-one]
C (≤30% compound remaining at timepoint)	C (≤30% compound remaining at timepoint)	C (≤30% compound remaining at timepoint)	A (≥70% compound remaining at timepoint)	A (≥70% compound remaining at timepoint)	A (≥70% compound remaining at timepoint)	–	–	C=CC(=O)N1CCN(c2cc(C(=O)Nc3cc(O)cc4ccccc34)nc(OCCC3CCCN3C)n2)C[C@@H]1CC#N (stereo partly drawn) [Example 47, 6-[(3S)-3-(cyanomethyl)-4-prop-2-enoyl-piperazin-1-yl]-N-(3-hydroxy-1-naphthyl)-2-[2-(1-methylpyrrolidin-2-yl)ethoxy]pyrimidine-4-carboxamide]
C (≤30% compound remaining at timepoint)	C (≤30% compound remaining at timepoint)	C (≤30% compound remaining at timepoint)	A (≥70% compound remaining at timepoint)	A (≥70% compound remaining at timepoint)	A (≥70% compound remaining at timepoint)	–	–	C=CC(=O)N1CCN(c2cc(C(=O)Nc3cc(O)cc4ccccc34)nc(OCC3CN(C)CCO3)n2)C[C@@H]1CC#N (stereo in doubt) [Example 52, 6-[(3S)-3-(cyanomethyl)-4-prop-2-enoyl-piperazin-1-yl]-N-(3-hydroxy-1-naphthyl)-2-[[(2R)-4-methylmorpholin-2-yl]methoxy]pyrimidine-4-carboxamide]
C (≤30% compound remaining at timepoint)	C (≤30% compound remaining at timepoint)	C (≤30% compound remaining at timepoint)	A (≥70% compound remaining at timepoint)	A (≥70% compound remaining at timepoint)	A (≥70% compound remaining at timepoint)	–	–	C=CC(=O)N1CCN(c2cc(C(=O)Nc3cc(O)cc4ccccc34)nc(OC[C@@H]3CCCN3CCO)n2)C[C@@H]1CC#N [Example 53, 6-[(3S)-3-(cyanomethyl)-4-prop-2-enoyl-piperazin-1-yl]-2-[[(2S)-1-(2-hydroxyethyl)pyrrolidin-2-yl]methoxy]-N-(3-hydroxy-1-naphthyl)pyrimidine-4-carboxamide]
C (≤30% compound remaining at timepoint)	C (≤30% compound remaining at timepoint)	C (≤30% compound remaining at timepoint)	A (≥70% compound remaining at timepoint)	A (≥70% compound remaining at timepoint)	A (≥70% compound remaining at timepoint)	–	–	C=CC(=O)N1CCN(c2cc(C(=O)Nc3cc(O)cc4ccccc34)nc(OC[C@@H]3CCCN3C(C)C)n2)C[C@@H]1CC#N [Example 54, 6-[(3S)-3-(cyanomethyl)-4-prop-2-enoyl-piperazin-1-yl]-N-(3-hydroxy-1-naphthyl)-2-[[(2S)-1-isopropylpyrrolidin-2-yl]methoxy]pyrimidine-4-carboxamide]

Compound	30 min Category (compound remaining at timepoint) [1]	3 hr Category (compound remaining at timepoint) [1]	6 hr Category (compound remaining at timepoint) [1]	30 min Category (compound remaining at timepoint) [2]	3 hr Category (compound remaining at timepoint) [2]	6 hr Category (compound remaining at timepoint) [2]	24 hr Category (compound remaining at timepoint) [1]	24 hr Category (compound remaining at timepoint) [2]
C=CC(=O)N1CCN(c2cc(C(=O)Nc3cc(O)cc4ccccc34)nc(OC[C@H]3CCCN3C)n2)C[C@@H]1CC#N [Example 34, 6-[(3S)-3-(cyanomethyl)-4-prop-2-enoyl-piperazin-1-yl]-N-(3-hydroxy-1-naphthyl)-2-[[(2R)-1-methylpyrrolidin-2-yl]methoxy]pyrimidine-4-carboxamide]	B (30%-70% compound remaining at timepoint)	C (≤30% compound remaining at timepoint)	C (≤30% compound remaining at timepoint)	A (≥70% compound remaining at timepoint)	A (≥70% compound remaining at timepoint)	A (≥70% compound remaining at timepoint)	–	–
C=CC(=O)N1CCN(c2cc(C(=O)Nc3cccc4ccccc34)nc(OC[C@@H]3CCCN3C)n2)CC1 [Example 01, 2-[[(2S)-1-methylpyrrolidin-2-yl]methoxy]-N-(1-naphthyl)-6-(4-prop-2-enoylpiperazin-1-yl)pyrimidine-4-carboxamide]	–	A (≥70% compound remaining at timepoint)	–	–	A (≥70% compound remaining at timepoint)	–	B (30%-70% compound remaining at timepoint)	A (≥70% compound remaining at timepoint)
C=CC(=O)N1CCN(c2cc(C(=O)Nc3cc(O)cc4ccccc34)nc(NCCC3CCCN3C)n2)C[C@@H]1CC#N (stereo partly drawn) [Example 30, 6-[(3S)-3-(cyanomethyl)-4-prop-2-enoyl-piperazin-1-yl]-N-(3-hydroxy-1-naphthyl)-2-[2-(1-methylpyrrolidin-2-yl)ethylamino]pyrimidine-4-carboxamide]	B (30%-70% compound remaining at timepoint)	C (≤30% compound remaining at timepoint)	C (≤30% compound remaining at timepoint)	A (≥70% compound remaining at timepoint)	A (≥70% compound remaining at timepoint)	A (≥70% compound remaining at timepoint)	–	–
